Data taken from US7238778B2, “Crystallized glucocorticoid receptor ligand binding domain polypeptide and screening methods employing same” (SmithKline Beecham Corporation, priority 2001, dated 2007).

How the values were obtained:
[1] = target: T1, GST-GR LBD (F602S) 521–777 (Homo sapiens, UniProt P04150, F602S); test: Surface plasmon resonance (Biacore) binding of GST-GR LBD to immobilized TIF2 LXXLL peptide
T1 construct: GR-LBD(521–777) F602S; made in house; host or cells: E. coli BL21(DE3); TIF2 peptide made by chemical synthesis
T1 sequence (P04150 521-777 F602S): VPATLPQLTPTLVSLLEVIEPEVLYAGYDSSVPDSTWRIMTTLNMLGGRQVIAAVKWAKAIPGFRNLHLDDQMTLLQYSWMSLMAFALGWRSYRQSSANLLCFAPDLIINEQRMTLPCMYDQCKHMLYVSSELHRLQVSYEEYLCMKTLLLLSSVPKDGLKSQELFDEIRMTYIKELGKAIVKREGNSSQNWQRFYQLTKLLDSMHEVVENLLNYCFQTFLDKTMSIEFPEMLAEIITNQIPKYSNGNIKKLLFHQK
Protocol: Each point is the average of two determinations.
FIG. 2B was generated using Biacore techniques. Biacore relies on changes in the refractive index at the surface layer upon binding of a ligand to a protein immobilized on the layer. In this system, a collection of small ligands is injected sequentially in a 2–5 microliter cell, wherein the protein is immobilized within the cell. Binding is detected by surface plasmon resonance (SPR) by recording laser light refracting from the surface. […] The purified protein is then used in the assay without further preparation. A synthetic peptide with an amino-terminal biotin is coupled to a sensor chip immobilized with streptavidin. The chip thus prepared is then exposed to the potential ligand via the delivery system incorporated in the instruments sold by Biacore (Uppsala, Sweden) to pipet the ligands in a sequential manner (autosampler). The SPR signal on the chip is recorded and changes in the refractive index indicate an interaction between the immobilized target and the ligand. Analysis of the signal kinetics of on rate and off rate allows the discrimination between non-specific and specific interaction.

[2] = target: GR LBD (F602S) 521–777 (Homo sapiens, UniProt P04150, F602S); settings: GST-GR fusion protein and cleaved GR LBD alone; 10 nM fluorescein dexamethasone, competed with 100 uM unlabeled dexamethasone (FIG. 2A)
Protocol: FIG. 2A is a graph depicting the binding of 10 nM fluorescein dexamethasone to varied concentrations of GST-GR LBD (F602S) 521–777 (circles), GR LBD (F602S) 521–777 (triangles) and GR LBD (F602S) 521–777 in the presence of 100 uM unlabeled dexamethasone (squares) as measured by fluorescence polarization.
All experiments were conducted with buffer containing 10 mM HEPES pH 7.4, 0.15 M NaCl, 3 mM EDTA, 0.005% polysorbate-20 and 5 mM DTT. For activity determinations, 10 nM of fluorescein dexamethasone (Molecular Probes, Eugene, Ore.) was titrated with increasing concentrations of the glucocorticoid receptor in black 96-well plates (CoStar, Cambridge, Mass.). The fluorescence polarization values for each concentration of receptor were determined using a BMG PolarStar Galaxy fluorescence plate reader (BMG Labtechnologies GmbH, Offenburg, Germany) with 485 nm excitation and 520 nm emission filters. Binding isotherms were constructed and apparent EC50 values were determined by non-linear least squares fit of the data to an equation for a simple 1:1 interaction. […] For stability studies, the fluorescent polarization of 10 nM fluorescein dexamethasone with 1 μM GST-GR LBD 521–777 (F602S) is read at specific time intervals in the presence or absence of 25 uM of a peptide derived from the coactivator TIF2.

[3] = target: T2, GST-GR LBD 521–777 (F602S) (Homo sapiens, UniProt P04150, F602S); test: Stability of GR dexamethasone binding activity over time by fluorescence polarization; settings: 25 uM peptide, 1 μM GST-GR LBD, 10 nM fluorescein dexamethasone (FIG. 2C)
T2 construct: GR-LBD(521–777) F602S; made in house; host or cells: E. coli BL21(DE3)
T2 sequence (P04150 521-777 F602S): T1 sequence (P04150 521-777 F602S)
Protocol: FIG. 2C is a graph depicting that TIF2 coactivator peptide enhances stability of GR dexamethasone binding activity. The effect of 25 uM coactivator peptide TIF2 732–756 (diamonds) or no peptide (squares) on the binding of GST-GR LBD (F602S) 521–777 to 10 nM fluorescein dexamethasone with time is determined by fluorescence polarization.

Sequence of GR LBD (F602S) 521–777 (P04150 with tags, fused parts or gaps F602S): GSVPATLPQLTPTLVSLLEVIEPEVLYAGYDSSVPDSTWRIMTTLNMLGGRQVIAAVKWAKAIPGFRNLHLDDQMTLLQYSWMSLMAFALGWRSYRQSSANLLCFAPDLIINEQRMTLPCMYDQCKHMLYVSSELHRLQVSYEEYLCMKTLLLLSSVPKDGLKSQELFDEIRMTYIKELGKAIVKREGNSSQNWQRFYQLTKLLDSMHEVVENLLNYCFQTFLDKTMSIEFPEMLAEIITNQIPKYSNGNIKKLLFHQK

Which “effect of ligand on binding of the GST-GR fusion protein to the TIF2 peptide” value ([1]; five-fold excess of compound over GST-GR LBD (F602S) (FIG. 2B)) does the source give for “(11β, 16α)-9-fluoro-11β,17,21-trihydroxy-16α-methylpregna-1-4-diene-3,20-dione [dexamethasone]” here?
Its value is “enhanced”.

And the “binding of dexamethasone to GR” value [2]?
Its value is “saturable and competable”.

With “QEPVSPKKKENALLRYLLDKDDTKD [TIF2 peptide]” as the substance, how does the “effect on the dexamethasone binding activity of the GST-GR fusion protein with time” value [3] read?
Its value is “stabilizes”.

What about the “affinity of the TIF2 coactivator peptide for the GST-GR fusion protein” value ([1]; immobilized TIF2 732–756 peptide (FIG. 2B)) of the same substance?
Its value is “submicromolar”.
